Source: PMC13377601, “Discovery of VU6066098: A Selective and CNS-Penetrant mGlu2 NAM with Robust Antidepressant‑, Antipsychotic‑, and Procognitive-like Activity in Rodents” (ACS Chemical Neuroscience, 2026)

Target: T1, human mGlu2 (Homo sapiens, UniProt Q14416)
T1 construct: expressed in transfected cells; host or cells: HEK293 stably co-expressing GIRK channels
Assay: mGlu2/GIRK thallium flux assay (human)
Type: cell-based
Details: NAM vs glutamate EC80

T1 sequence (Q14416 19-872): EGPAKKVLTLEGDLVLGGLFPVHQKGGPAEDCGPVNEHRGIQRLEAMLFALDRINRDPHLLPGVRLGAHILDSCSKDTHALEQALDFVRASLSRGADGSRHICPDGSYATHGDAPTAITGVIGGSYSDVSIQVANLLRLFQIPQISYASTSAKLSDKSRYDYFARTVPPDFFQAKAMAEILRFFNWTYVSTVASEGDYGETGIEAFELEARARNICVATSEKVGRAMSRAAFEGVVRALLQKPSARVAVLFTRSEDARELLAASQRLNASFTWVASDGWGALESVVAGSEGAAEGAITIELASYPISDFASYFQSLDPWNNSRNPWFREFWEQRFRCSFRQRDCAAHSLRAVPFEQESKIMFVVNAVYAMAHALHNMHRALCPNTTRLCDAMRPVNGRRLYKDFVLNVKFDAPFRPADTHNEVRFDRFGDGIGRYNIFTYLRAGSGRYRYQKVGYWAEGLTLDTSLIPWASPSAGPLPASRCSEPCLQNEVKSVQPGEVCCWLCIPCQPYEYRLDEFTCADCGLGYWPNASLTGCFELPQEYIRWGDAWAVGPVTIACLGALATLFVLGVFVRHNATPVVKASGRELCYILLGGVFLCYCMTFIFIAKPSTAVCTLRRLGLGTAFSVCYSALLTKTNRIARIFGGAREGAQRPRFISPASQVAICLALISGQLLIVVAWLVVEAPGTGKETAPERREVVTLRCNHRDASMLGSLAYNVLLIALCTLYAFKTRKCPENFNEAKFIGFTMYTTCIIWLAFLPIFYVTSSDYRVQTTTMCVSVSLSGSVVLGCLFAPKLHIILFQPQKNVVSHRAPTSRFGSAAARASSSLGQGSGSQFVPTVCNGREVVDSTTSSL

IC50: 78 nM
SMILES: Cn1ccc(COc2cnc(C(N)=O)cc2-c2ccc(F)cc2)n1 [NAM 5]
